According to US20240286998A1, “F[…], ANALOGUES THEREOF, AND METHODS USING SAME” (Saint Joseph's University, priority 2021, published 2024):
Structures can show the parent of a compound that is named as a salt.

First: CCCN(CCC)CCc1c[nH]c2ccc(F)cc12 (as salt: HCl) [Example 5, N-(2-(5-fluoro-1H-indol-3-yl)ethyl)-N-propylpropan-1-amine]
Second: CCCN(CC)CCc1c[nH]c2ccc(F)cc12 (as salt: HCl) [Example 6, N-ethyl-N-(2-(5-fluoro-1H-indol-3-yl)ethyl)propan-1-amine]
The melting point of the first is higher: 187.5 to 188 °C for the first, 154.5 to 155.4 °C for the second.

First: C=CCN(CCc1c[nH]c2ccc(F)cc12)C(C)C (as salt: HCl) [Example 11, N-(2-(5-fluoro-1H-indol-3-yl)ethyl)-N-isopropylprop-2-en-1-amine]
Second: C=CCN(CCc1c[nH]c2ccc(F)cc12)C(C)CC (stereo not shown) (as salt: HCl) [compound 16, N-allyl-N-(2-(5-fluoro-1H-indol-3-yl)ethyl)butan-2-amine]
The melting point of the first is lower: 132 to 134 °C for the first, 157 to 161.8 °C for the second.

First: C=CCN(CCc1c[nH]c2ccc(F)cc12)C1CCC1 (as salt: HCl) [Example 14, N-allyl-N-(2-(5-fluoro-1H-indol-3-yl)ethyl)cyclobutanamine]
Second: CCN(CCc1c[nH]c2ccc(F)cc12)C1CC1 (as salt: hydrochloride)
The melting point of the first is lower: 196.3 to 199 °C for the first, 219.7 to 220.1 °C for the second.

First: CN(CCc1c[nH]c2ccc(F)cc12)C1CSC1 (as salt: HCl) [compound 20, N-(2-(5-fluoro-1H-indol-3-yl)ethyl)-N-methylthietan-3-amine]
Second: CC(C)CN(C)CCc1c[nH]c2ccc(F)cc12 (as salt: hydrochloride) [compound 39, N-(2-(5-fluoro-1H-indol-3-yl)ethyl)-N,2-dimethylpropan-1-amine]
The melting point of the first is higher: 221 to 223.3 °C for the first, 150 to 151.5 °C for the second.

First: CCC(C)N(CCc1c[nH]c2ccc(F)cc12)C(C)C (stereo not shown) (as salt: HCl) [compound 32, N-(2-(5-fluoro-1H-indol-3-yl)ethyl)-N-isopropylbutan-2-amine]
Second: CC(C)C(C)N(C)CCc1c[nH]c2ccc(F)cc12 (stereo not shown) (as salt: hydrochloride)
The melting point of the first is higher: 193.7 to 195 °C for the first, 157.5 to 158.1 °C for the second.

First: CCCN(CC)CCc1c[nH]c2ccc(F)c(F)c12 (as salt: fumarate) [compound 21, N-(2-(4,5-difluoro-1H-indol-3-yl)ethyl)-N-ethylpropan-1-amine]
Second: CCCN(CC)CCc1c[nH]c2cc(Cl)c(F)cc12 (as salt: hydrochloride) [compound 37, N-(2-(6-chloro-5-fluoro-1H-indol-3-yl)ethyl)-N-ethylpropan-1-amine]
The melting point of the first is lower: 182.1 to 183.3 °C for the first, 231 to 232.6 °C for the second.

First: CC(C)N(CCc1c[nH]c2ccc(F)cc12)CC1CC1 (as salt: hydrochloride)
Second: CCCN(CCc1c[nH]c2ccc(F)cc12)C(C)CC (stereo not shown) (as salt: hydrochloride) [compound 22, N-(2-(5-fluoro-1H-indol-3-yl)ethyl)-N-propylbutan-2-amine]
The melting point of the first is higher: 191 to 192.5 °C for the first, 153.2 to 155.4 °C for the second.

Compound C=CCN(CC)CCc1c[nH]c2ccc(F)cc12 (as salt: hydrochloride) [compound 36, N-ethyl-N-(2-(5-fluoro-1H-indol-3-yl)ethyl)prop-2-en-1-amine] has a melting point of 123.7 to 128.5 °C.

For CC(C)N(CC#N)CCc1c[nH]c2ccc(F)cc12 (as salt: HCl) [compound 17, 2-((2-(5-fluoro-1H-indol-3-yl)ethyl)(isopropyl)amino)acetonitrile], the melting point was 147 to 150 °C (dec.).
